Source: publication PMC6133092, “Synthesis of 2-alkylthio-N-(quinazolin-2-yl)benzenesulfonamide derivatives: anticancer activity, QSAR studies, and metabolic stability” (Monatshefte Fur Chemie, 2018)

Legend:
SR = test: NCI-60 single dose screen, SR; format: cell-based; details: Homo sapiens, Leukemia, single concentration 10^−5 M, read-out: IGP (inhibition growth percent) SR
Protocol: (§1) Aside from above, compounds 9–14 and 17–24 were also submitted to National Cancer Institute and evaluated for the cytotoxic effects toward 60 cell lines at a single dose of 10 μM (Table 2). […] As it was summarized in Table 2, leukemia RPMI-8226 and NSCLC A549/ATCC were most sensitive to compounds 18, 22, and 24. These derivatives in 10 μM concentration inhibited the growth of approximately 50% cells belonging to the above mention cell lines.
(§2) Cytotoxicity evaluation of compounds 9–14 and 17–24 was performed at the National Cancer Institute according to NCI-60 DTP human tumor cell line screen procedure.

HeLa (cervical cancer) = test: MTT cell viability assay, HeLa; format: cell-based; details: Homo sapiens
Protocol: (§3) All chemicals, if not stated otherwise, were obtained from Sigma-Aldrich (St. Louis, MO, USA). The MCF-7 and HeLa cell lines were purchased from Cell Lines Services (Eppelheim, Germany), the HCT-116 cell line was purchased from ATCC (ATCC-No: CCL-247). Cells were cultured in Dulbecco’s modified Eagle’s medium (DMEM) supplemented with 10% fetal bovine serum, 2 mM glutamine, 100 units/cm^3 penicillin, and 100 μg/cm^3 streptomycin. Cultures were maintained in a humidified atmosphere with 5% CO2 at 37 °C in an incubator (Heraceus, HeraCell).
(§4) Cell viability was determined using the MTT (3-(4,5-dimethylthiazol-2-yl)-2,5-diphenyltetrazolium bromide) assay. Cells were seeded in 96-well plates at a density of 5 × 10^3 cells/well and treated for 72 h with the examined compounds in the concentration range 1–100 μM (1, 10, 25, 50, and 100 μM). Following treatment, MTT (0.5 mg/cm^3) was added to the medium and cells were further incubated for 2 h at 37 °C. Cells were lysed with DMSO and the absorbance of the formazan solution was measured at 550 nm with a plate reader (Victor, 1420 multilabel counter). […] The experiment was performed in triplicate. Values are expressed as the mean ± SD of at least three independent experiments.

HOP-92 = test: NCI-60 single dose screen, HOP-92; format: cell-based; details: Homo sapiens, NSCLC, single concentration 10^−5 M, read-out: IGP (inhibition growth percent) HOP-92
Protocol: as §1, §2

EKVX = test: NCI-60 single dose screen, EKVX; format: cell-based; details: Homo sapiens, NSCLC, single concentration 10^−5 M, read-out: IGP (inhibition growth percent) EKVX
Protocol: as §1, §2

MOLT-4 = test: NCI-60 single dose screen, MOLT-4; format: cell-based; details: Homo sapiens, Leukemia, single concentration 10^−5 M, read-out: IGP (inhibition growth percent) MOLT-4
Protocol: as §1, §2

HCT-116 = test: NCI-60 single dose screen, HCT-116; format: cell-based; details: Homo sapiens, Colon cancer, single concentration 10^−5 M, read-out: IGP (inhibition growth percent) HCT-116
Protocol: as §1, §2

[1] = Metabolic stability in human liver microsomes with NADPH; format: in vitro ADME; details: pooled human liver microsomes, pH 7.4, human liver microsomes 0.5 mg/cm^3, NADPH 1 mM, 10 μM compound, 37 °C, read-out: in vitro metabolic half-life t1/2
Protocol: Selected derivatives were submitted to metabolic stability study to assess their ability to remain unchanged in the presence of human metabolic enzymes. Human liver microsomes were used as they are a rich source of all common CYP isoenzymes. In vitro incubations were performed in the presence of NADPH as a cofactor and the disappearance of a derivative was followed using LC–MS technique. The in vitro metabolic half-life values are gathered in Fig. 3.
Stock solutions of studied compounds were prepared at concentration of 10 mM in DMSO. […] Incubation mixture contained 10 μM of a studied derivative, 1 mM of NADPH (Sigma-Aldrich) and 0.5 mg/cm^3 of pooled human liver microsomes (HLM, Sigma-Aldrich) in potassium phosphate buffer (0.1 M, pH 7.4). Incubation was carried out in thermostat at 37 °C and started by addition of studied compound. 50 mm^3 samples were taken at starting point and after 5, 15, 30, 45, and 60 min. Enzymatic reaction was terminated by the addition of the equal volume of ice-cold acetonitrile. Incubations were performed in triplicates, the average t1/2 and standard deviation was calculated. Control incubations were performed without NADPH to assess chemical instability. After collection, samples were immediately centrifuged (10 min, 10,000 rpm) and resulted supernatant was directly analyzed or kept in − 80 °C until LC–MS analysis. Natural logarithm of a compound over IS peak area ratio was plotted versus incubation time. Metabolic half-time (t1/2) was calculated from the slope of the linear regression.
LC–MS analysis was performed on an Agilent 1260 system coupled to SingleQuad 6120 mass spectrometer (Agilent Technologies, Santa Clara, CA, USA). Poroshell EC-C18 (2.1 mm × 150 mm, 2.7 μm, Agilent Technologies, Santa Clara, CA, USA) was used in reversed-phase mode with gradient elution starting with 5% of phase A (10 mM ammonium formate in water) and 95% of phase B (10 mM ammonium formate in acetonitrile–water mixture, 95:5 v/v). […] Total analysis time was 15 min at 40 °C, flow rate was 1 cm^3/min and the injection volume was 5 mm^3. The mass spectrometer was equipped with electrospray ion source and operated in positive ionization. Mass analyzer was set individually to each compound to detect [M+H]^+ protonated molecule. MSD parameters of the ESI source were as follows: nebulizer pressure 35 psig (N2), drying gas […] (N2), drying gas temperature 300 °C, capillary voltage 3 kV, fragmentor voltage 150 V.

MCF-7 (breast cancer) = test: MTT cell viability assay, MCF-7; format: cell-based, human; details: Homo sapiens, MCF7, 72 h, mean ± SD
Protocol: (§5) All of the newly synthesized compounds 9–24 were evaluated for their effects on cell viability in three human cancer cell lines: HCT-116 (colon cancer), HeLa (cervical cancer), and MCF-7 (breast cancer). Cisplatin was used as reference drug. […] Considering the activity of derivatives 9–12, 15, 17, 18, and 21–24, it can be noticed that phenyl group as R^3 bring an increase of cytotoxicity in comparison with methyl in place of R^3. However, this impact seems to be the most important for compounds with the bulky group in R^1 and generally, it is less for a set of derivatives with methyl group substituted in R^1 (9–12).
as §3, §4

UO-31 = test: NCI-60 single dose screen, UO-31; format: cell-based; details: Homo sapiens, Renal cancer, single concentration 10^−5 M, read-out: IGP (inhibition growth percent) UO-31
Protocol: as §1, §2

HCT-116 (colon cancer) = test: MTT cell viability assay, HCT-116; format: cell-based; details: Homo sapiens, 72 h, mean ± SD
Protocol: as §3, §4

MCF-7 = test: NCI-60 single dose screen, MCF-7; format: cell-based; details: Homo sapiens, MCF7; Breast cancer; single concentration 10^−5 M; read-out: IGP (inhibition growth percent) MCF-7
Protocol: as §1, §2

UACC-62 = test: NCI-60 single dose screen, UACC-62; format: cell-based; details: Homo sapiens, Melanoma, single concentration 10^−5 M, read-out: IGP (inhibition growth percent) UACC-62
Protocol: as §1, §2

RPMI-8226 = test: NCI-60 single dose screen, RPMI-8226; format: cell-based; details: Homo sapiens, RPMI-8226, Leukemia; single concentration 10^−5 M; read-out: IGP (inhibition growth percent) RPMI-8226
Protocol: as §1, §2

HaCaT = test: Cytotoxic effect against non-carcinogenic cell line HaCaT; format: cell-based
Protocol: For the compounds with the strongest cytotoxicity (12, 18, 22, and 24), an investigation of cytotoxic effect against non-carcinogenic cell line HaCaT was done. […] The activity against HCT-116 was 1.7-, 1.6-, 1.5-, and 1.4-fold higher when compared with HaCaT cell line, for compounds 12, 18, 22, and 24, respectively.
as §4

HCT-116, HeLa, MCF-7 = test: MTT assays, mean over three tested cell lines; format: cell-based; details: Homo sapiens, mean of HCT-116, HeLa, read-out: mean IC50 against three tested cell lines
Protocol: as §5, §4

NCI-H522 = test: NCI-60 single dose screen, NCI-H522; format: cell-based; details: Homo sapiens, NSCLC, single concentration 10^−5 M, read-out: IGP (inhibition growth percent) NCI-H522
Protocol: as §1, §2

A549/ATCC = test: NCI-60 single dose screen, A549/ATCC; format: cell-based; details: Homo sapiens, A549, NSCLC; single concentration 10^−5 M; read-out: IGP (inhibition growth percent) A549/ATCC
Protocol: as §1, §2

PC-3 = test: NCI-60 single dose screen, PC-3; format: cell-based; details: Homo sapiens, Prostate cancer, single concentration 10^−5 M, read-out: IGP (inhibition growth percent) PC-3
Protocol: as §1, §2

[2] = Table 4, repeats Table 1 values without SD and unit

Row | Compound | melting point | inhibition at 10 µM (SR) [%] | IC50 (HeLa (cervical cancer); MTT, 72 h, mean ± SD) [µM] | IC50 (HeLa (cervical cancer); [2]) [µM] | inhibition at 10 µM (HOP-92) [%] | inhibition at 10 µM (EKVX) [%] | inhibition at 10 µM (MOLT-4) [%] | inhibition at 10 µM (HCT-116) [%] | half-life at 10 μM [1] [min] | IC50 (MCF-7 (breast cancer)) [µM] | inhibition at 10 µM (UO-31) [%] | IC50 (HCT-116 (colon cancer)) [µM] | inhibition at 10 µM (MCF-7) [%] | inhibition at 10 µM (UACC-62) [%] | inhibition at 10 µM (RPMI-8226) [%] | inhibition at 10 µM (NCI-H522) [%] | inhibition at 10 µM (A549/ATCC) [%] | inhibition at 10 µM (PC-3) [%] | also measured
1 | Cc1cc(S(=O)(=O)Nc2nc(-c3ccccc3)c3ccccc3n2)c(SCc2ccccc2)cc1Cl [Compound 10, 2-Benzylthio-4-chloro-5-methyl-N-(4-phenylquinazolin-2-yl)benzenesulfonamide] | 192 to 198 °C | 14 | 61 ± 2 | 61 | 17 | 6 | 25 | 8 | 49.2 | 57 ± 1 | 5 | 44 ± 1 | 9 | 29 | 25 |  |  |  | 
2 | Cc1cc(S(=O)(=O)Nc2nc(-c3ccccc3)c3ccccc3n2)c(SCc2cc3c(cc2Cl)OCO3)cc1Cl [Compound 12, 4-Chloro-2-(6-chlorobenzo[d][1,3]dioxol-5-ylmethylthio)-5-methyl-N-(4-phenylquinazolin-2-yl)benzenesulfonamide] |  |  | 46 ± 1 | 46 |  |  | 12 | 6 | 48.1 | 51 ± 2 | 25 | 37 ± 1 | 5 | 33 | 2 | 16 | 14 | 14 | IC50 (HaCaT; Homo sapiens, HaCaT, non-carcinogenic cell line, mean ± SD): 64 ± 2 µM; activity against HCT-116 fold higher compared with HaCaT (HaCaT; selectivity HCT-116 vs HaCaT): 1.7 fold; inhibition of growth of HaCaT cells fold weaker than HeLa cells (HaCaT; selectivity HeLa vs HaCaT): 1.4 fold; IC50 (HCT-116, HeLa, MCF-7): 44.7 µM
3 | Cc1cc(S(=O)(=O)Nc2nc(C)c3ccccc3n2)c(SCC(N)=O)cc1Cl [Compound 13, 2-Carbamoylmethylthio-4-chloro-5-methyl-N-(4-methylquinazolin-2-yl)benzenesulfonamide] | 232 to 235 °C (dec.) | 12 | 320 ± 22 |  |  | 5 | 11 |  | 75.4 | 440 ± 4 | 8 | 260 ± 5 | 6 |  |  | 4 |  |  | 
4 | CCOC(=O)CSc1cc(Cl)c(C)cc1S(=O)(=O)Nc1nc(C)c2ccccc2n1 [Compound 15, 4-Chloro-2-(2-ethoxy-2-oxoethylthio)-5-methyl-N-(4-methylquinazolin-2-yl)benzenesulfonamide] | 192 to 194 °C |  | 230 ± 7 |  |  |  |  |  |  | 160 ± 6 |  | 110 ± 2 |  |  |  |  |  |  | 
5 | CCOC(=O)CSc1cc(Cl)c(C)cc1S(=O)(=O)Nc1nc(-c2ccccc2)c2ccccc2n1 [Compound 16, 4-Chloro-2-(2-ethoxy-2-oxoethylthio)-5-methyl-N-(4-phenyl-quinazolin-2-yl)benzenesulfonamide] | 162 to 165 °C |  | 74 ± 4 | 74 |  |  |  |  |  | 105 ± 3 |  | 62 ± 1 |  |  |  |  |  |  | 
6 | Cc1nc(NS(=O)(=O)c2cc(C(=O)Nc3ccccc3)c(Cl)cc2SCc2ccccc2)nc2ccccc12 [Compound 17, 2-Benzylthio-4-chloro-5-phenylcarbamoyl-N-(4-methylquinazolin-2-yl)benzenesulfonamide] |  | 12 | 72 ± 1 | 72 | 20 | 18 | 9 | 5 | 16 | 175 ± 10 | 24 | 84 ± 3 |  | 14 | 22 | 12 | 11 | 3 | 
7 | Cc1nc(NS(=O)(=O)c2cc(C(=O)Nc3ccc(Cl)cc3)c(Cl)cc2SCc2ccccc2)nc2ccccc12 [Compound 21, 2-Benzylthio-4-chloro-5-(4-chlorophenylcarbamoyl)-N-(4-methylquinazolin-2-yl)benzenesulfonamide] |  | 3 | 71 ± 2 | 71 | 8 | 8 | 7 | 4 | 37.7 | 115 ± 2 | 22 | 54 ± 1 | 5 | 6 | 12 | 20 | 8 | 8 | 
